Reference: ChEMBL document CHEMBL4602739, “Design and Synthesis of a Trifunctional Molecular System "Programmed" to Block Epidermal Growth Factor Receptor Tyrosine Kinase, Induce High Levels of DNA Damage, and Inhibit the DNA Repair Enzyme (Poly(ADP-ribose) Polymerase) in Prostate Cancer Cells” (J Med Chem, 2020)
Calls of active or inactive are those of the source. No cut-off for these calls is given here.

Columns and labels:
[1] = tested on: PC-3; assay: Growth inhibition of human PC3 cells after 5 days by SRB assay; format: functional, cell-based; details: PC-3, 120 h
[2] = tested on: CWR22R; assay: Inhibition of PARP in human 22Rv1 cells assessed as reduction in auto-PARylation at 10 uM measured after 48 hrs by Western blot analysis; format: cell-based
[3] = tested on: PC-3; assay: Inhibition of PARP in human PC3 cells assessed as reduction in auto-PARylation at 10 uM measured after 48 hrs by Western blot analysis; format: cell-based
[4] = tested on: DU-145; assay: Growth inhibition of human DU145 cells after 5 days by SRB assay; format: functional, cell-based; details: DU-145, 120 h
[5] = tested on: CWR22R; assay: Growth inhibition of human 22Rv1 cells after 5 days by SRB assay; format: functional, cell-based; details: 22Rv1, 120 h
[6] = molecular target: T1, Epidermal growth factor receptor (Homo sapiens, UniProt P00533); assay: Inhibition of EGFR in human PC3 cells assessed as reduction in EGF-stimulated EGFR phosphorylation at <= 1 uM preincubated for 2 hrs followed by EGF stimulation and measured after 30 mins by Western blot analysis relative to control; format: cell-based; details: PC-3
T1 sequence (P00533 whole entry): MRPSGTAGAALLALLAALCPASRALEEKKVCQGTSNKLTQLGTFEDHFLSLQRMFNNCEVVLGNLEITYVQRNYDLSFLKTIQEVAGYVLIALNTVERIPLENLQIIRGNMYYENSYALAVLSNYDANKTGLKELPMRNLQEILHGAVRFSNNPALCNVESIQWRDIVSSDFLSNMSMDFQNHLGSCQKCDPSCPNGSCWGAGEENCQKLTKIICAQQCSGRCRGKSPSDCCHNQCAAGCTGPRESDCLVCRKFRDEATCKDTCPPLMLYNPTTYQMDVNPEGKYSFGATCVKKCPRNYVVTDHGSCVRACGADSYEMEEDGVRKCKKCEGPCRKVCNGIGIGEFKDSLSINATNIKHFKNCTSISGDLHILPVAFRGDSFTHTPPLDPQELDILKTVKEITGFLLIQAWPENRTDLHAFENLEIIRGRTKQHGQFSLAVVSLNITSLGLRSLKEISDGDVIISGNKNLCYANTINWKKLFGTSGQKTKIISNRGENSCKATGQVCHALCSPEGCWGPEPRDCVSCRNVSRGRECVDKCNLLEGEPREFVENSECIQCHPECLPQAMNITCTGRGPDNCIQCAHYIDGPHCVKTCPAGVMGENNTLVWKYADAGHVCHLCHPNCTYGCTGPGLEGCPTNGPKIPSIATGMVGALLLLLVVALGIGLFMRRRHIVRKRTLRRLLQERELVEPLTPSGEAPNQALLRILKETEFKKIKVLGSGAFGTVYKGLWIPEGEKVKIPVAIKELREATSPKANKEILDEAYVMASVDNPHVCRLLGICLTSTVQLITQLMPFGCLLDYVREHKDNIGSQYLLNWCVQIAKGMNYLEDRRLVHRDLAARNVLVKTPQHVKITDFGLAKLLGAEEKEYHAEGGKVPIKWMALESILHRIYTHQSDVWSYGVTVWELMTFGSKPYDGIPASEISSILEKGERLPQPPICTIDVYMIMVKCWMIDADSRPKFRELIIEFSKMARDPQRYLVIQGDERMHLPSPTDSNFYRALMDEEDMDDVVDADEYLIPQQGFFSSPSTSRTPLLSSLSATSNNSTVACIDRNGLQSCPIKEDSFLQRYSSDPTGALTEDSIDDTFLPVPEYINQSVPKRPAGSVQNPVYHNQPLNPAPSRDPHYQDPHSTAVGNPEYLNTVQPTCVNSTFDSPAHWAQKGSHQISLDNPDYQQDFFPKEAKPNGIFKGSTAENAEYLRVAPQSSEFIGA

[7] = molecular target: T1, Epidermal growth factor receptor; assay: Inhibition of EGFR in human 22Rv1 cells assessed as reduction in EGF-stimulated EGFR phosphorylation preincubated for 2 hrs followed by EGF stimulation and measured after 30 mins by Western blot analysis; format: cell-based; details: CWR22R
[8] = molecular target: T1, Epidermal growth factor receptor; assay: Inhibition of EGFR in human PC3 cells assessed as reduction in EGF-stimulated AKT phosphorylation at 0.1 to 100 uM preincubated for 2 hrs followed by EGF stimulation and measured after 30 mins by Western blot analysis; format: cell-based; details: PC-3
[9] = Drug uptake in human 22Rv1 cells at 25 uM measured up to 6 hrs by LC-MS/MS analysis; format: ADME, cell-based; details: cwr22r
[10] = Drug uptake in human 22Rv1 cells assessed as drug accumulation in perinuclear region at 10 uM measured after 2 hrs by confocal laser scanning microscopic analysis; format: ADME, cell-based; details: cwr22r
[11] = organism: Homo sapiens; assay: Selectivity ratio of IC50 for BRCA mutant (unknown origin) expressed in Cricetulus griseus VCA cells to IC50 for BRCA (unknown origin) expressed in Cricetulus griseus VCA cells; format: cell-based
[12] = molecular target: T1, Epidermal growth factor receptor; assay: Inhibition of EGFR in human PC3 cells assessed as reduction in EGF-stimulated EGFR phosphorylation preincubated for 2 hrs followed by EGF stimulation and measured after 30 mins by Western blot analysis; format: cell-based; details: PC-3
[13] = tested on: DNA; assay: Induction of DNA damage in human PC3 cells assessed as increase in gammaH2AX phosphorylation up to 20 uM measured after 48 hrs by Western blot analysis; format: cell-based; details: PC-3
[14] = tested on: DNA; assay: Induction of DNA damage in human 22Rv1 cells assessed as increase in gammaH2AX phosphorylation up to 20 uM measured after 48 hrs by Western blot analysis; format: cell-based; details: CWR22R
[15] = tested on: PC-3; assay: Inhibition of PARP in human PC3 cells assessed as reduction in auto-PARylation up to 20 uM measured after 48 hrs by Western blot analysis; format: cell-based
[16] = tested on: DNA; assay: Induction of DNA damage in human PC3 cells measured after 2 to 24 hrs by alkaline commet assay; format: cell-based; details: PC-3
[17] = Induction of 2'-Deoxyguanosine depurination at 0.1 mM measured after 24 hrs by LC-MS analysis; details: 100 µM
[18] = tested on: DNA; assay: Induction of DNA damage in human 22Rv1 cells measured after 2 to 24 hrs by alkaline commet assay; format: cell-based; details: CWR22R
[19] = Selectivity ratio of IC50 for EGFR (unknown origin) transfected in mouse NIH/3T3 cells to IC50 for EGFR in mouse NIH/3T3 cells; format: cell-based
[20] = tested on: CWR22R; assay: Inhibition of PARP in human 22Rv1 cells assessed as reduction in auto-PARylation up to 20 uM measured after 48 hrs by Western blot analysis; format: cell-based
[21] = molecular target: T1, Epidermal growth factor receptor; assay: Inhibition of recombinant human N-terminal GST-tagged EGFR (668 to end residues) expressed in baculovirus infected Sf9 insect cells assessed as reduction in […] EGFR phosphorylation […] by TMB peroxidase substrate based assay
[22] = molecular target: T1, Epidermal growth factor receptor; assay: Inhibition of EGFR in human PC3 cells assessed as reduction in EGF-stimulated ERK phosphorylation at 0.1 to 100 uM preincubated for 2 hrs followed by EGF stimulation and measured after 30 mins by Western blot analysis; format: cell-based; details: PC-3
[23] = tested on: DNA; assay: Induction of DNA damage in human 22Rv1 cells at 12.5 measured after 2 to 24 hrs by alkaline commet assay relative to busulfan; format: cell-based; details: CWR22R
[24] = molecular target: T1, Epidermal growth factor receptor; assay: Inhibition of EGFR in human 22Rv1 cells assessed as reduction in EGF-stimulated EGFR phosphorylation at <= 1 uM preincubated for 2 hrs followed by EGF stimulation and measured after 30 mins by Western blot analysis relative to control; format: cell-based; details: CWR22R
[25] = tested on: DNA; assay: Induction of DNA damage in human PC3 cells at 12.5 uM measured after 2 to 24 hrs by alkaline commet assay relative to busulfan; format: cell-based; details: PC-3

## O=C(c1cc(Cc2n[nH]c(=O)c3ccccc23)ccc1F)N1CCN(C(=O)C2CC2)CC1 [OLAPARIB]
[1]
  IC50: 20.6 µM
[2]
  inhibition: Active
[3]
  inhibition: Active
[4]
  IC50: 17.7 µM
[5]
  IC50: 33.8 µM

## CN(CCOS(=O)(=O)CCc1cn(CCCC(=O)N2CCN(C(=O)c3cc(Cc4n[nH]c(=O)c5ccccc45)ccc3F)CC2)nn1)c1ccc2ncnc(Nc3cccc(Br)c3)c2c1
[1]
  IC50: 3 µM
[6]
  inhibition: 34 to 45%
[7]
  inhibition: Dose-dependent effect
[8]
  inhibition: Active
[9]
  Drug uptake: Active
[10]
  Drug uptake: Active
[11]
  Ratio IC50: 3 to 4
[12]
  inhibition: Dose-dependent effect
[13]
  Activity: Active
[14]
  Activity: Active
[15]
  inhibition: Active
[16]
  Activity: Dose-dependent effect
[17]
  Drug metabolism: Metabolite_Detected
[18]
  Activity: Dose-dependent effect
[19]
  Ratio IC50: 7
[20]
  inhibition: Active
[21]
  IC50: 0.326 µM
[4]
  IC50: 3.2 µM
[22]
  inhibition: Active
[23]
  fold change (FC): 3 to 6
[5]
  IC50: 1.9 µM
[24]
  inhibition: 34 to 45%
[25]
  fold change (FC): 3 to 6

## CS(=O)(=O)OCCCCOS(C)(=O)=O [BUSULFAN]
[1]
  IC50: 36.2 µM
[4]
  IC50: 25.8 µM
[5]
  IC50: 24.3 µM
